Here are results for five molecules from publication PMC5215778, “Molecular Characterization of N-glycan Degradation and Transport in Streptococcus pneumoniae and Its Contribution to Virulence” (PLoS Pathogens, 2017).

The target in data set [1] is T1, NgtS (Streptococcus pneumoniae, UniProt A0A0H2UMY0).
T1 construct: gene SP_0092; residues 25-491, secretion signal peptide and lipobox removed, C-terminal six-histidine tag, expressed in E. coli BL21 Star (DE3)
Description: UV difference titration. Conditions: read-out: affinity constant; bimolecular binding model with ligand depletion.

Data set [2] concerns the target T1, NgtS. Description: ITC. Particulars: 20 mM Tris, pH 8.0, 25 °C; 1:1 binding.
The target in data set [3] is T2, SpGH92 (Streptococcus pneumoniae, UniProt A0A0H2US35).
T2 construct: gene SP_2145
Briefly: UPLC-MS. Type of data set: biochemical. Particulars: 10 mM MOPS pH 7.0, 2 mM CaCl2, room temperature, 16 h, 0.6 μM substrate, 1 μM enzyme.

For data set [4], the target named is T2, SpGH92. Briefly: X-ray crystal structure, […] Å. Type of data set: binding. Conditions: crystal soaked with α-(1,2)-mannobiose; mannose in +1 subsite, Ca2+ and glycerol bound.
Data set [5] deals with the molecule itself. Briefly: crystal structure; crystals grown in 2.25 M (NH4)2SO4, 0.1 M Bis-Tris pH 5.5, soaked with α-(1,2)-mannobiose; four molecules in the asymmetric unit.

In general, stoichiometry N refers to a count of units in the complex or per binding partner.

T1 sequence (A0A0H2UMY0 25-491): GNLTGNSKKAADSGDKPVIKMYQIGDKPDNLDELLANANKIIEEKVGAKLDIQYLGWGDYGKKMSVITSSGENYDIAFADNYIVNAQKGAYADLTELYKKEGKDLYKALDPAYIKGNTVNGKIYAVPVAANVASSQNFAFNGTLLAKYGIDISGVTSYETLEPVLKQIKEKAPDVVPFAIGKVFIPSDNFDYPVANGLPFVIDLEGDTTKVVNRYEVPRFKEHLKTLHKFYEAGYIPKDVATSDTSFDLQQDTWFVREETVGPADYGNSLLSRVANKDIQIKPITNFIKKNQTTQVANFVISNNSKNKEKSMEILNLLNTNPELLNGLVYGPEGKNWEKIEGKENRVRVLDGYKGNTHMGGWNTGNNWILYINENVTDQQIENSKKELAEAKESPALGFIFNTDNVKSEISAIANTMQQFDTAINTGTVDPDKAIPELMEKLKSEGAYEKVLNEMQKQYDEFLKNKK

Turning to `CC(=O)N[C@H]1C(O)O[C@H](CO)[C@@H](O[C@@H]2O[C@H](CO)[C@@H](O)[C@H](O)[C@@H]2O)[C@@H]1O` (some centres unmarked) [Man1GlcNAc], the Kd in data set [1] was 83.3 µM. `CC(=O)N[C@H]1C(O)O[C@H](CO)[C@@H](O[C@@H]2O[C@H](CO[C@H]3O[C@H](CO[C@H]4O[C@H](CO)[C@@H](O)[C@H](O)[C@@H]4O)[C@@H](O)[C@H](O[C@H]4O[C@H](CO)[C@@H](O)[C@H](O)[C@@H]4O)[C@@H]3O)[C@@H](O)[C@H](O[C@H]3O[C@H](CO)[C@@H](O)[C@H](O)[C@@H]3O)[C@@H]2O)[C@@H]1O` (some centres unmarked) [Man5GlcNAc]: in data set [2], the Ka is 1.04 (± 0.01)×10^6. With `CC(=O)N[C@H]1[C@H](O[C@H]2[C@H](O)[C@@H](NC(C)=O)C(O)O[C@@H]2CO)O[C@H](CO)[C@@H](O[C@@H]2O[C@H](CO[C@H]3O[C@H](CO[C@H]4O[C@H](CO)[C@@H](O)[C@H](O)[C@@H]4O[C@H]4O[C@H](CO)[C@@H](O)[C@H](O)[C@@H]4O)[C@@H](O)[C@H](O[C@H]4O[C@H](CO)[C@@H](O)[C@H](O)[C@@H]4O[C@H]4O[C@H](CO)[C@@H](O)[C@H](O)[C@@H]4O)[C@@H]3O)[C@@H](O)[C@H](O[C@H]3O[C@H](CO)[C@@H](O)[C@H](O)[C@@H]3O[C@H]3O[C@H](CO)[C@@H](O)[C@H](O)[C@@H]3O[C@H]3O[C@H](CO)[C@@H](O)[C@H](O)[C@@H]3O)[C@@H]2O)[C@@H]1O` (some centres unmarked) [Man9GlcNAc2], the UPLC-MS result in data set [3] is reported as “treatment of Man9GlcNAc2 with SpGH92 produced a glycan having a mass consistent with Man5GlcNAc2”.

On to `OC[C@H]1OC(O)[C@@H](O)[C@@H](O)[C@@H]1O` (some centres unmarked) [mannose], for which the “X-ray crystal structure, 2.15 Å” value in data set [4] was “electron density consistent with a single mannose residue, resulting from the hydrolysis”.

B1: SpGH92 (SP_2145), α-(1,2)-mannosidase from Streptococcus pneumoniae TIGR4 (enzyme)
chain: MKPLLETIDTRFGTTNKHAFSRGNTLPYTGVPFGMNYFVPQTSDQDGSWFFDPHLPIFQGIRLTHQPSPWIGDYSWLLLTPVTSQLGGDSLFHRQSSYDIDKACFQPHYLKLFSLRYQIETQLTPTCYGASIRLNQKQGKALSLYLHAADELTVEQVDKRTLALRQEGKTETNKNSLTMFTALQMNTDILAISQEAGDWRIDLASSQTEMQLATSFISPSQALINLPQEDFDSCKSSAQVDWENLLHRFDIIETGEADRTFFDHCLYRLFLFPQTFYEINESGQAIHMDLATGTVKPGVLFSNNGFWDTFRTTFPLFALIIPEHYQRFLEGFLNSYRDTGFLPKWLAPDERGMMPGTLLDGIIADSACKDMTPDLEGELFQAMLETASKADPLGINGRHGLAQYQELGYLSTDHHESVSHTLDYAYSDFCIASCAKKLENIEIAETYKAASQNYRQLFDAETGYMRARDNQGNFHPDFSPYSWGRDYAECSAIQATLGVLHDIPGLIQLMGGKETFSNYLLKACQDAPLFETTGYGYEIHEMSEMATAPFGQIAISNQPSFHIPYLFRYSDYPDYTALLIKTLRQKAFHPSWEAYPGDEDNGSLSAWYIWSALGFYPTCPGKPSYDLGIPLFDHLRVYLAKEDKWLDIHTKQNHNHFNFVKECRLDKTLVSTIQHQDLLKAEQLTFTLSWLPSH
notes: SpGH92, family 92 glycoside hydrolase, S. pneumoniae TIGR4 locus tag SP_2145, amino acids 1-694, cloned in pET28a between NheI and XhoI; Tetramer with D2 symmetry in the crystal and in solution; theoretical molecular weight of the tetramer 325.96 kDa; source: E. coli BL21 Star (DE3), autoinduction, purified (Ni-NTA)
In the case of B1, the “stoichiometry N” value in data set [5] came to 4.
